For experiment [1], the target named is T1, SARS-CoV helicase (Severe acute respiratory syndrome coronavirus, UniProt P0C6X7). Type of experiment: biochemical.
The target in experiment [2] is T1, SARS-CoV helicase. The class given is biochemical. The source holds these as a separate data set.

Each structure is given as a SMILES string.

Turning to `O=c1c(O)c(-c2ccc3c(c2)OCO3)oc2cc(O)cc(O)c12` [Compound 3b, 2-Benzo[1,3]dioxol-5-yl-3,5,7-trihydroxy-chromen-4-one], the “inhibition of duplex DNA-unwinding activity (in words)” value at SARS-CoV helicase [1] is “failed to show any inhibition”. Moreover, the “inhibition of helicase ATPase activity (in words)” value against SARS-CoV helicase [2] is “failed to show any inhibition”.

The values above are taken from article PMC7127646 (Bioorganic & Medicinal Chemistry Letters, 2009).
